Measured values published in patent US5866397A, “Human protein tyrosine phosphatase OB protein” (Merck & Co., Inc., priority 1997, dated 1999).
Entries after “also recorded” stand apart in the source; their conditions may differ. Like-named read-outs stand apart in the source and are kept apart here.

Experiments:
MB1.8 cells = assay: Osteoblast proliferation (thymidine incorporation) in mouse calvaria derived MB1.8 cells; assay type: cell-based; conditions: micromolar concentrations
PTP-OB = target: T1, PTP-OB (Homo sapiens, UniProt Q13332); assay: PTP enzymatic assay with recombinant GST-PTP-OB fusion protein (FDP substrate); assay type: biochemical; conditions: pH 5.65, FIG. 8
T1 construct: we expressed the cytoplasmic domain of PTP-OB and PTPε in bacteria as a GST-fusion protein; made in house; host or cells: bacteria (vector pGEX-2TX, Pharmacia)
T1 sequence (Q13332 1303-1928 isoform Q13332-3 C1437R/N1685K): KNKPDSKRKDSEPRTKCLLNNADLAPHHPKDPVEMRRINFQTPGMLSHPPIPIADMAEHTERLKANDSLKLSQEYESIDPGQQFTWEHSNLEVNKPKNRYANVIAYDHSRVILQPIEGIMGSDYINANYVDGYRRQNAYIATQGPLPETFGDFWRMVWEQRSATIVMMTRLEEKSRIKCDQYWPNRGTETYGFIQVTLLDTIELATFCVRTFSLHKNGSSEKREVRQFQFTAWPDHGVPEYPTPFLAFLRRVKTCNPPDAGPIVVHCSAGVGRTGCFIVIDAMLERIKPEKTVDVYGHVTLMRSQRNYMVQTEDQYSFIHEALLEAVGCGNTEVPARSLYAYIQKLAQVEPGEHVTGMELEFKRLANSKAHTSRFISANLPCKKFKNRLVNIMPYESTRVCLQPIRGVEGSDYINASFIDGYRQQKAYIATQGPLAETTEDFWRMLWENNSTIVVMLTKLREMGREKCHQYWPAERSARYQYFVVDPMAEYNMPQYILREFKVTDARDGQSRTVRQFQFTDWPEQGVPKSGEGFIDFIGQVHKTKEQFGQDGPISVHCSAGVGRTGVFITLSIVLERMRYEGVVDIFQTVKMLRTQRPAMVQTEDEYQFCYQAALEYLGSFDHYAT

rat osteoclasts = assay: cells; assay type: cell-based
[1] = tested on: multinucleated TRAP positive osteoclast-like cells; assay: cells; assay type: cell-based, mouse
[2] = tested on: mononucleated TRAP positive cells; assay type: cell-based, mouse
PTPε = PTPε (Mus musculus, UniProt P49446); assay: PTP enzymatic assay with recombinant GST-PTPε fusion protein (FDP substrate)
[3] = tested on: osteoblasts and bone marrow cells
bone resorption = conditions: organ cultures; Krieger and Tashjian; cited from earlier work
bone cells / osteoblasts = conditions: cited from earlier work
[4] = substrate: O=C1OC2(c3ccc(OP(=O)(O)O)cc3Oc3cc(OP(=O)(O)O)ccc32)c2ccccc21; assay: purified protein, by the assay type; conditions: other: FDP as substrate of GST-PTPε; pH 5.65

In the case of `NCCCC(O)(P(=O)(O)O)P(=O)(O)O` [alendronate], the “thymidine incorporation (mitogenesis) of quiescent osteoblasts” value (shortened to “thymidine incorporation (mitogenesis)”) (MB1.8 cells) is reported as “stimulated thymidine incorporation”, the IC50 (PTP-OB) is reported as 0.2 µM and the inhibition at 10 µM (rat osteoclasts; Rattus norvegicus, Osteoclast, 24 h, read-out: reduction of the number of resorption pits) is reported as 80%. The “inhibition of formation of multinucleated TRAP positive cells” value [1] was “completely inhibited” and the “development of mononucleated TRAP positive cells” value [2] was “did not block”.

In the case of `CC(O)(P(=O)(O)O)P(=O)(O)O` [etidronate], the “thymidine incorporation (mitogenesis)” value (MB1.8 cells) is reported as “stimulated thymidine incorporation” and the IC50 (PTPε) is reported as ~0.4 µM.

In the case of `COC1=C2C[C@@H](C)C[C@H](OC)[C@H](O)[C@@H](C)/C=C(\C)[C@H](OC(N)=O)[C@@H](OC)/C=C\C=C(/C)C(=O)NC(=CC1=O)C2=O` [geldanamycin], the “inhibition of formation of multinucleated TRAP positive cells” value [1] is reported as “complete inhibition”, the “inhibition of osteoclast formation, in words” value [1] is reported as “potent inhibitor” and the IC50 ([1]; Mus musculus, Osteoclast-like, read-out: IC50, osteoclast formation) is reported as 0.05 µg/mL. The “appearance/development of mononuclear TRAP positive cells” value [2] was “completely blocked; also recorded: inhibited the development of mononuclear TRAP positive cells”.

In the case of `[O]=[V]([O-])([O-])[O-]` [orthovanadate], the “thymidine incorporation (mitogenesis)” value (MB1.8 cells) is reported as “stimulated thymidine incorporation”, the “inhibition of bone resorption, in words” value (rat osteoclasts) is reported as “potent inhibitors” and the “reduction of the number of resorption pits” value (rat osteoclasts; osteoclasts on bone slices, 1440 min, 10 µM) is reported as 80%. For the same molecule, the IC50 (rat osteoclasts; read-out: IC50, bone resorption) was 2 µM, the “effects on the co-cultured osteoblasts” value [3] was “no ill effects” and the “toxicity for osteoblasts or bone marrow cells” value [3] was “no apparent toxicity”. For the same molecule, the “stimulation of bone resorption induced by PTH” value (bone resorption) was “inhibited”, the “bone cell / osteoblast proliferation” value (bone cells / osteoblasts) was “can stimulate osteoblast proliferation; also recorded: stimulated cell proliferation; also recorded: stimulation of cell proliferation” and the “additional effect when added at earlier days of co-culture” value [1] was “small additional effect”. For the same molecule, the “inhibition of formation of multinucleated TRAP positive cells” value [1] was “completely inhibited”, the “inhibition of formation of multinucleated TRAP positive cells, in words” value [1] was “completely inhibited” and the “inhibition of formation of multinucleated osteoclastic cells when added at any time up to day six” value [1] was ≥ 90%. For the same molecule, the “inhibition of formation of the fused TRAP positive cells, in words” value [1] was “markedly inhibited”, the “block of formation of multinucleated TRAP positive cells when added at day six of co-culture” value ([1]; bone marrow/osteoblast co-culture, 1440 min) was 80% and the IC50 ([1]; read-out: IC50, formation of multinucleated TRAP positive cells) was 2 µM. The “development of mononucleated TRAP positive cells” value [2] was “did not block” and the “formation of mononucleated TRAP positive cells” value [2] was “produced mononucleated TRAP positive cells”.

B1: PTPε (Mus musculus) (protein)
chain: RFRKQRKAVVSSNDKKMPNGILEEQEQQRVMLLSRSPSGPKKFFPIPVEHLEEEIRVRSADDCKRFREEFNSLPSGHIQGTFELANKEENREKNRYPNILPNDHCRVILSQVDGIPCSDYINASYIDGYKEKNKFIAAQGPKQETVNDFWRMVWEQRSATIVMLTNLKERKEEKCYQYWPDQGCWTYGNIRVCVEDCVVLVDYTIRKFCIHPQLPDSCKAPRLVSQLHFTSWPDFGVPFTPIGMLKFLKKVKTLNPSHAGPIVVHCSAGVGRTGTFIVIDAMMDMIHSEQKVDVFEFVSRIRNQRPQMVQTDVQYTFIYQALLEYYLYGDTELDVSSLERHLQTLHSTATHFDKIGLEEEFRKLTNVRIMKENMRTGNLPANMKKARVIQIIPYDFNRVILSMKRGQEFTDYINASFIDGYRQKDYFMATQGPLAHTVEDFWRMVWEWKSHTIVMLTEVQEREQDKCYQYWPTEGSVTHGDITIEIKSDTLSEAISVRDFLVTFKQPLARQEEQVRMVRQFHFHGWPEVGIPAEGKGMIDLIAAVQKQQQQTGNHPITVHCSAGAGRTGTFIALSNILERVKAEGLLDVFQAVKSLRLQRPHMVQTLEQYEFCYKVVQDFIDIFSDYANFK
B1 showed a Km [4] of 70 µM.
